Experiments:
[1] = Test G: effect on body weight of repeated escalating dosing (toxicity, MTD); assay type: in vivo; conditions: IV once a day for 7 days, 20 mg/kg increased by 25% each dose; two female mice per group
Procedure: Mice were treated with escalating doses of either compound 16 or 3-Cl-AHPC to establish the difference in toxicity (MTD) between these compounds as measured by decreased body weight (FIG. 8). Two groups of mice, each consisting of two female ICR-SCIDS mice, were injected IV with either compound 16 or 3-Cl-AHPC once a day for 7 days. The initial IV injection of 20 mg/kg for each compound was increased by 25% for each ensuing dose. Body weights were measured on each of the seven days with the final body weights determined 48 hours post final dose. […] The final weight for this mouse was recorded 2 hours after death.

[2] = tested on: TF(v-SRC) cells; test: Test E: inhibition of TF(v-SRC) cell growth in SCID mice (systemic model); assay type: in vivo; conditions: 20 mg/kg intravenously every other day, 15 doses
Procedure: (§1) FIG. 7 illustrates compound 16 inhibited TF(v-SRC) proliferation and growth in SCID mice. NOD SCID mice were randomized into two groups of eight. Each mouse was injected with 1×10^7TF(v-SRC) cells and 24 h later mice were either treated intravenously with compound 16 (20 mg/kg) or vehicle on a Monday, Wednesday and Friday schedule for five weeks. Mice were monitored for toxicity and survival. A) Survival of TF(vSRC) inoculated mice treated with compound 16, and B) absence of weight loss in compound 16 treated SCID mice. C) compound 16 inhibited palpable TF(v-SRC) growth in SCID mice. TF(v-SRC) cells were grown subcutaneously in a maintenance SCID mouse. The tumor was harvested and approximately 20 mg of tumor was subcutaneously injected utilizing a trochar into each flank of a SCID mouse. The tumors were then allowed to reach a size of 100 mg. The mice were randomized into three groups of 8 mice. Groups were treated either intravenously or subcutaneously at a distant site from the tumor with 20 mg/kg of compound 16 on a Monday, Wednesday and Friday schedule for 12 injections (4 weeks). Control mice were treated intravenously with vehicle.
Non-obese diabetic-severe combined immunodeficiency (NOD-SCID) and ICR-SCID mice were obtained from Jackson Laboratories (Bar Harbor, Me.) and Taconic Farms (Germantown, N.Y.), respectively. A) FFMA-AML and TF(v-SRC) systemic models: NOD-SCID and ICR-SCID mice (4 to 5 weeks old) were injected with either FFMA-AML or TF(v-SRC) cells intravenously. Treatment with either vehicle, 3-Cl-AHPC or compound 16 (the compound of Example 1) was instituted the following day. Once symptoms such as diarrhea, dehydration, weight loss, ascites, paralysis or general weakness became evident, mice were euthanized. B) TF(v-SRC) subcutaneous mouse model. ICR-SCID mice were trocared subcutaneously bilaterally with TF(v-SRC) tumor fragments. Animals with equal tumor weights determined as described previously (Zhang Y. et al., Blood. 2002; 100:2917-2925) were assigned to three experimental arms: 1) control (vehicle treated), 2) subcutaneously treated with compound 16, and 3) intravenously treated with compound 16. The percent increase in the host life-span (% ILS) of the FFMA-AML and TF(v-SRC) bearing mice was calculated by subtracting the […] divided by the median day of death of the AML-bearing vehicle treated mice. In order to determine the efficacy of the 3-Cl-AHPC and compound 16, survival distribution of the 3-Cl-AHPC or compound 16-treated (T) or vehicle (C) groups were compared using the log-rank test. Survival was characterized as the duration of the animal's life span 24 h after the initiation of the xenograft until an observed event (euthanasia or death). A p-value of less than 5% (p<0.05) was considered statistically significant.
The ability of compound 16 to inhibit the growth of TF(v-SRC) cells in SCID mice was determined. SCID mice were injected with 10 million TF(v-SRC) cells. The mice were treated intravenously with compound 16 (20 mg/kg) or vehicle every other day for a total of 15 doses. […] TF(v-SRC) growth in the SCID mice was documented by flow cytometry.

[3] = tested on: poly(ADP-ribose)polymerase (PARP); test: Test C: PARP cleavage; assay type: cell-based; conditions: FFMA-AML and TF(v-SRC) cells
Source text: FIG. 5 illustrates compound 16-mediated inhibition of XIAP, c-IAP1, and phospho-Bad expression in FFMA-AML and TF(v-SRC) cells accompanied by the induction of PARP cleavage. A) XIAP, c-IAP and phospho-Bad protein expression following exposure to compound 16 assessed by Western blot. B)-D) Protein expression levels quantified using laser densitometry. The expression levels of XIAP, c-IAP1 and phospho-Bad were normalized to the respective α-tubulin level and compared to their relative levels in the controls, which were given an arbitrary value of 1.
The proteins c-IAP1, c-IAP2, and XIAP bind caspases resulting in inhibition of caspase activity (Jin H-S. et al., Cancer Res. 2009; 69:[…]). […] The Bcl-2 family member Bad enhances apoptosis and is inactivated through phosphorylation to phosphorylated Bad (Eisenmann K. M. et al., Cancer Res. 2003; 63:8330-8337). To assess modulation of anti-apoptotic protein expression during the induction of apoptosis in the AML cells by compound 16, the expression of XIAP, c-IAP1 and phospho-Bad as well as cleavage of the DNA-damage repair poly(ADP-ribose)polymerase (PARP) was assessed following exposure of the AML cells to compound 16.

[4] = tested on: TF(v-SRC) tumors; test: Test F: inhibition of growth of palpable TF(v-SRC) tumors; assay type: in vivo, SCID mice; conditions: palpable tumors of 100 mg
Procedure: as §1, with “Groups were treated either intravenously or subcutaneously at a distant site from the tumor with 20 mg/kg of compound 16 on a Monday, Wednesday and Friday schedule for 12 injections (4 weeks). Control mice were treated intravenously with vehicle.” left out
Non-obese diabetic-severe combined immunodeficiency (NOD-SCID) and ICR-SCID mice were obtained from Jackson Laboratories (Bar Harbor, Me.) and Taconic Farms (Germantown, N.Y.), respectively. […] Animals with equal tumor weights determined as described previously (Zhang Y. et al., Blood. 2002; 100:2917-2925) were assigned to three experimental arms: 1) control (vehicle treated), 2) subcutaneously treated with compound 16, and 3) intravenously treated with compound 16. […]

In the case of `O=C(O)C=Cc1ccc(-c2ccc(O)c(C34CC5CC(CC(C5)C3)C4)c2)c(Cl)c1` [Compound 3-Cl-AHPC, 4-[3-(1-adamantyl)-4-hydroxyphenyl]-3-chlorocinnamic acid, reference compound], the mortality [1] is reported as “One of the mice in the group treated with 3-Cl-AHPC died 48 hours after the final injection”.
With `O=C(O)/C=C/c1cnc(-c2ccc(O)c(C34CC5CC(CC(C5)C3)C4)c2)nc1` [Compound 16, (E)-3-[2-(3-(1-Adamantyl)-4-hydroxyphenyl)-5-pyrimidinyl]-2-propenoic acid] the “clinical signs of toxicity” value [2] was “did not display any evidence of diarrhea, dehydration, scruffy coat, or decreased physical activity”, the length of survival [2] was “marked increase in the length of survival” and the “malignant cells by flow cytometry (lymph node/tumor specimens)” value [2] was “No malignant cells were identified”. The “treated mice with no evidence of leukemia” value [2] was 87%, the “weight loss compared to vehicle-treated mice” value [2] was “did not display any evidence of weight loss” and the “cleavage of PARP” value [3] was “cleavage of PARP was noted”. For the same compound, the “reduction in TF(v-SRC) growth” value ([4]; 20 mg/kg intravenously every other day) was 55% and the “reduction in TF(v-SRC) growth” value ([4]; 20 mg/kg subcutaneously at a remote site every other day) was 55%.

Reference: US9096544B2, “Therapeutic compounds” (Wayne State University, priority 2009, dated 2015)
